Experiment [1] has as its system Mecp2-deficient mice. The experiment is described as follows: Lifespan (survival) study, oral cysteamine in drinking water. The format is in vivo, mouse. As to conditions: cysteamine in drinking water 225 mg/kg/day from P30, mean±SEM, n=17, p<0.05 vs vehicle (65±2.2 days), Kaplan-Meir log-rank test. Here is the method: Experiments were performed on Sprague dawley rats and B6.129P2(C)- MeCP2 tm1-1 Bird mouse model for RTT (Guy, J., Hendrich, B., Holmes, M., Martin, J. E., Bird, A. (2001) A mouse Mecp2-null mutation causes neurological symptoms that mimic Rett syndrome. Nat. Genet. 27, 322-326). The mice were obtained from the Jackson Laboratory and maintained on a C57BL/6 background. The rats were obtained from Charles River Laboratories, France. The experimental procedures were carried out in keeping with the European guidelines for the care and use of laboratory animals (Council Directive […]). For the mouse experiments, hemizygous mutant males (MeCP2^-/y) were generated by crossing heterozygous knockout females to C57BL/6 males. […]
From P30, animals received a cysteamine treatment in their drinking water (225 mg/kg/day) (Sigma-Aldrich; St-Quentin, France). […] Open-field activity was measured in an arena made of clear perspex (38×30 cm). The test session lasted 15 min with data recorded using the Ethovision 2.3.19 tracking system (Noldus Information Technology). Velocity (cm/s) and total distance moved (cm) were recorded. […]

The subject of experiment [2] is Mecp2-deficient mice. Briefly: Open-field activity (total distance moved, velocity). The format is in vivo, mouse. As for the experimental part:
Experiments were performed on Sprague dawley rats and B6.129P2(C)- MeCP2 tm1-1 Bird mouse model for RTT (Guy, J., Hendrich, B., Holmes, M., Martin, J. E., Bird, A. (2001) A mouse Mecp2-null mutation causes neurological symptoms that mimic Rett syndrome. Nat. Genet. 27, 322-326). The mice were obtained from the Jackson Laboratory and maintained on a C57BL/6 background. The rats were obtained from Charles River Laboratories, France. The experimental procedures were carried out in keeping with the European guidelines for the care and use of laboratory animals (Council Directive […]). For the mouse experiments, hemizygous mutant males (MeCP2^-/y) were generated by crossing heterozygous knockout females to C57BL/6 males. Genotyping was performed by routine PCR technique according to Jackson Laboratory protocols and as previously described (Viemari, J. C., Roux, J. C., Tryba, A. K., Saywell, V., Burnet, H., Peña, F., Zanella, S., Bévengut, M., Barthelemy-Requin, M., Herzing, L. B., Moncla, A., Mancini, J., Ramirez, J. M., Villard, L., Hilaire, G. (2005) Mecp2 deficiency disrupts norepinephrine and respiratory systems in mice. J. Neurosci. 25, 11521-11530).
From P30, animals received a cysteamine treatment in their drinking water (225 mg/kg/day) (Sigma-Aldrich; St-Quentin, France). Every 2 days, mice were weighted, cysteamine solution renewed and treatment consumption checked. […] Seventy-nine Mecp2 deficient mice were studied (lifespan study, n=17 cysteamine-treated and n=42 untreated; motor evaluation n=10 cysteamine-treated and n=10 untreated). The mice were assigned to each experimental group by an investigator who was blind to their genotype. Open-field activity was measured in an arena made of clear perspex (38×30 cm). The test session lasted 15 min with data recorded using the Ethovision 2.3.19 tracking system (Noldus Information Technology). Velocity (cm/s) and total distance moved (cm) were recorded. Velocity calculations on Ethovision were obtained using an input filter setting the minimal distance moved (0.6 cm) so that ambulations shorter than this value were never taken into account.

In the case of `NCCS` [cysteamine], the life span in experiment [1] stood at 74.8 ± 5.2 days. In experiment [2] (Mecp2-deficient mice, chronic oral cysteamine vs placebo group, especially in the later stages), the “locomotion in open field arena (total distance moved and velocity)” value was “significantly improved locomotion”. In addition, the “mouse velocity in open field” value in experiment [2] (Mecp2-deficient mice, oral cysteamine vs vehicle, from P65, p<0.05, n=10 per group) is “significantly increased”. Further, the “total distance traveled in the open field arena during the 15-minute session” value in experiment [2] (Mecp2-deficient mice, oral cysteamine vs vehicle, from P75, n=10 per group) is “statistically increased”. Also, the “total distance, difference between cysteamine treated and placebo group” value in experiment [2] (P55, open field 15 min) is “+3%”; in experiment [2] (P65, open field 15 min), “+40%”; in experiment [2] (P75, open field 15 min), “+128%”; in experiment [2] (P85, open field 15 min) it was “+485%”. Further, the “velocity, difference between cysteamine treated and placebo group” value is given as “+18%” in experiment [2] (P55, open field 15 min); “+33%” in experiment [2] (P65, open field 15 min); “+65%” in experiment [2] (P75, open field 15 min); “+74%” in experiment [2] (P85, open field 15 min).

The values are drawn from patent US20150265554A1, “Treatment of MeCP-2 Associated Disorders” (UNIVERSITÉ D'AIX-MARSEILLE, priority 2010, published 2015).
